# Tested on: Male WistarF/Han (WF) rats
# Assay: Social interaction (SI) test of anxiety, i.c.v. P32/98 and NPY (Example 3)
# Type: in vivo, rat
# Settings: i.c.v. 5 pmol-500 nmol
# Experimental: Animals. […]
# Animals were randomly divided into two sets of four experimental groups (n=5-6/group), which completed different consecutive SI test of anxiety. […] The time spent in active social interaction (SI-time), 1 h and 12 h food-intake were measured. […]
# Social interaction (SI) test. […] Behavior was monitored using a video camera placed above the field inside the testing/isolation box. The SI behavior of both rats was recorded on-line from a monitor placed outside on top of the box. The following parameters were scored by an observer (HPN) unaware of the substrain of rats: duration of time spent in sniffing, following, crawling under and over other rats, but not passive body contact (resting, sleeping). […]
# Statistical analysis. Data from repeated observations (food intake) were analyzed by two-way analyses of variance for repeated measures (ANOVA) (factors: “substrain” and “food intake” as repeated measure). […]
smiles,measurement,value
CC[C@H](C)[C@H](N)C(=O)N1CCSC1 [P32/98],"time spent in active social interaction (SI-time), P32/98 alone",“bell-shaped” dose-dependent anxiolytic-like effects

# From patent US8168199B2, “Dipeptidyl peptidase IV inhibitors for the treatment of schizophrenia and depression” (priority 2000, dated 2012)
